Laboratory results as given in US20020114734A1, “Microplate thermal shift assay apparatus for ligand development and multi-variable protein chemistry optimization” (priority 1996, published 2002).
Where two headings read alike, the source gives them in different places. One block for each molecule: values may come before it. Where a SMILES comes first, the peptide text is derived from it. The star is where a group is joined. CH2Cl = ClC*

Legend:
D(II) FGF receptor 1 = assay: Microplate thermal shift screen of biochemical conditions, D(II) FGF receptor 1 stability; parameters: species or system human; conditions: for effect on D(II) FGF receptor 1 stability: additives in 50 mM MOPS pH 7, 0.1 M NaCl
Description: The microplate thermal shift assay was used to simultaneously screen the effects of multiple biochemical conditions on D(II) FGF receptor 1 stability. The assays were performed by mixing 1 μL of D(II) FGFR1 (from a 500 μM concentrated stock in 50 mM HEPES pH 7.5) with 4 μL of each biochemical condition in wells of a 96-well polycarbonate microtiter plate. Final protein concentration after mixing was 100 μM and final 1,8-ANS concentration was 200 μM. Biochemical conditions were tested as follows: The pH's tested were 5 (Na acetate), 6 (MES), 7 (MOPS), 8 (HEPES), and 9 (CHES), with final buffer concentrations of 50 mM.
The salt concentrations tested were 0.1 or 0.5 M NaCl. Additives were tested in 50 mM MOPS, pH 7, 0.1 M NaCl, at final concentrations of 1 mM (EDTA, dithiothreitol), 10 mM (CaCl2, MgCl2, MgSO4, NiSO4), 50 mM (arginine), 100 mM ((NH4)2SO4, LiSO4, Na2SO4, ZnSO4), 5% w/v (polyethylene glycol 6000), and 10% v/v glycerol.
(§1) Thermal denaturation profiles were generated as previously described for thrombin, aFGF, Factor D, and Factor Xa, by incremental heating of the microplate followed by a fluorescence reading after each temperature increase. Data were analyzed by non-linear least squares fitting as described previously.

[1] = tested on: human urokinase-type plasminogen activator (u-PA); assay: Miniaturized (5 μL) microplate thermal shift assay of urokinase; assay type: binding; conditions: CMK-u-PA complex, MOPS pH 7, NaCl, 1,8-ANS
Text: Another target molecule analyzed was human urokinase-type plasminogen activator (u-PA). U-PA enzymatically converts plasminogen into the active protease plasmin. U-PA is involved in tissue remodeling, cellular migration and metastases. The gene for u-PA was obtained from ATCC (Rockville, Md.) and modified to appropriately express active enzyme in E. coli. u-PA was cloned, overexpressed in E. coli, and purified using procedures similar to those described by Winkler et al. (Biochemistry 25:4041-4045 (1986)). […] The experiment was performed in the miniaturized format in 5 μL well volume. One μL of concentrated CMK-u-PA (13 g/L, 371.4 μM) was added to 4 μL of 62.5 mM MOPS, pH 7, 125 mM NaCl, and 250 μM 1,8-ANS, in multiple wells of a 96-well polycarbonate V-bottom microtiter plate. A thermal denaturation curve was generated as previously described for thrombin, aFGF, D(II)FGFR1, Factor D, and Factor Xa, by incremental heating of the microplate followed by a fluorescence reading after each temperature increase.

D(II) FGFR1 = target: T1, D(II) FGFR1 (Homo sapiens, UniProt P11362); assay: Miniaturized (10 μL) microplate thermal shift assay; assay type: binding
T1 construct: hexa-histidine (N); made in house
T1 sequence (P11362 158-246 limits assumed): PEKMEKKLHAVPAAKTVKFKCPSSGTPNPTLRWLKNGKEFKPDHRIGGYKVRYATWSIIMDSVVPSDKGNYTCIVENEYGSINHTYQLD
Description: Recombinant D(II) FGFR1 was purified from inclusion bodies and purified by affinity chromatography on heparin sepharose. A stock solution of D(II) FGFR1 (15 mg/mL; 1.1 mM) was diluted to 50 μM in assay buffer (50 mM Hepes, pH 7.5, 0.1 M NaCl). The assay volume was 10 μL and the concentration of 1,8-ANS was 250 μM.

human α-thrombin = target: T2, human α-thrombin (Homo sapiens, UniProt P00734); assay: Microplate thermal shift screen of biochemical conditions, thrombin stability; conditions: for effect on human α-thrombin stability: 10% glycerol, 10 mM dithiothreitol
T2 construct: A stock human α-thrombin solution; purchased Enzyme Research Labs
Description: The microplate thermal shift assay was used, with four different fluorophores, to simultaneously screen the effects of multiple pH values, sodium chloride concentrations, and reduction-oxidation compounds on human α-thrombin stability. […] Reaction volume was 100 μL.

human urokinase = assay: Microplate thermal shift screen of biochemical conditions, urokinase stability; conditions: 0.1 or 0.5 M NaCl; 10% glycerol
Description: The microplate thermal shift assay was used to simultaneously screen the effects of multiple biochemical conditions on human urokinase stability. This experiment was performed by mixing 1 μL of urokinase (from a […] concentrated stock in 20 mM Tris pH 8) with 4 μL of each biochemical condition in wells of a 96-well polycarbonate microtiter plate. Final protein concentration after mixing was 74 μM and final 1,8-ANS concentration was 200 μM. Biochemical conditions were tested as follows: The pH's tested were 5 (acetate), 6 (MES), 7 (MOPS), 8 (HEPES), and 9 (CHES) with final buffer concentrations of 50 mM. The salt concentrations tested were 0.1 or 0.5 M NaCl. Glycerol was tested at 10% v/v in 50 mM MOPS, pH 7, 0.1 M NaCl.
as §1, with “D, D(II) FGFR1,” for “D,”

[2] = target: T3, acidic fibroblast growth factor (aFGF) (Homo sapiens, UniProt P05230); assay: Microplate thermal shift assay for ligands binding to aFGF, turbidity as signal
T3 construct: host or cells: E. coli
T3 sequence (P05230 whole entry, species assumed): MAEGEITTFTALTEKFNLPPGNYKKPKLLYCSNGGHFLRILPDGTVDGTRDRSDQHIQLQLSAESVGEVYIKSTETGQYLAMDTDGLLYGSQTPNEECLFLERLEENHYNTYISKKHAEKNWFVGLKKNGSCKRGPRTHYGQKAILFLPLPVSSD
Text: The second therapeutic receptor tested in the microplate thermal shift assay was acidic fibroblast growth factor (aFGF), a growth factor that plays a key role in angiogenesis (Folkman, J. et al., J. Biol. Chem. 267:10931-10934 (1992)). A synthetic gene for this protein was purchased from R&D Systems (Minneapolis, Minn.), and was cloned and expressed in E. coli using methods similar to those described for basic fibroblast growth factor (bFGF) (Thompson, L. D. et al., Biochemistry 33:3831-3840 (1994); Pantoliano, M. W. et al., Biochemistry 33:10229-10248 (1994); Springer, B. A. et al., J. Biol. Chem. 269:26879-26884 (1994)). Recombinant aFGF was then purified by heparin-sepharose affinity chromatography as described (Thompson, L. D. et al., Biochemistry 33:3831-3840 (1994)). aFGF is also known to bind heparin/heparan, which is a cofactor for mitogenic activity. […] A microplate thermal assay of these compounds was set up in a way similar to that described above for human α-thrombin. […] The affinity constants covered a fairly broad range of binding affinities, with pentosan PSO4 showing the highest affinity.

[3] = target: T4, heparin binding site of basic fibroblast growth factor (bFGF) (Homo sapiens, UniProt P09038); assay: Microplate thermal shift assay for ligands binding to bFGF; conditions: read-out: binding affinity
T4 construct: host or cells: E. coli
T4 sequence (P09038 134-288, species assumed): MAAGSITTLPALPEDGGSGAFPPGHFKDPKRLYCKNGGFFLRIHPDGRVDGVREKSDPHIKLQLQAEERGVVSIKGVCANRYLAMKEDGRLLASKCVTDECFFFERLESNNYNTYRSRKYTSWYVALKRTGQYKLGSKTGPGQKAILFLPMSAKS
Text: The microplate thermal shift assay was used to assess ligands for binding to the heparin binding site of basic fibroblast growth factor (bFGF). The gene for bFGF was purchased from R&D Systems and was cloned and expressed in E. coli as previously described (Thompson, L. D. et al., Biochemistry 33:3831-3840 (1994); Pantoliano, M. W. et al., Biochemistry 33:10229-10248 (1994); Springer, B. A. et al., J. Biol. Chem. 269:26879-26884 (1994)).

thrombin = thrombin (Homo sapiens, UniProt P00734); conditions: 5 mM Tris buffer pH 8.0, 0.1% PEG, 25° C.; read-out: Kd of Na+ binding site; cited from earlier work

- effect on D(II) FGF receptor 1 stability (D(II) FGF receptor 1): stabilizing effects
SMILES: N.N.O=S(=O)(O)O [(NH4)2SO4]

SMILES: N=C(N)NCCC[C@H](NC(=O)CNC(=O)[C@@H](N)CCC(=O)O)C(=O)CCl [CMK, glu-gly-arg-chloromethylketone] (H-Glu-Gly-Arg-CH2Cl)
- Tm [1]: 81 °C

- effect on D(II) FGF receptor 1 stability (D(II) FGF receptor 1): stabilizing effects
SMILES: O=S(=O)([O-])[O-].[Li+].[Li+] [Li2SO4]

- effect on D(II) FGF receptor 1 stability (D(II) FGF receptor 1): stabilizing effects
SMILES: O=S(=O)([O-])[O-].[Na+].[Na+] [Na2SO4]

- effect on D(II) FGF receptor 1 stability (D(II) FGF receptor 1): stabilized the protein
- effect on D(II) FGF receptor 1 stability (D(II) FGF receptor 1; listed as Mg2SO4): stabilizing effects
SMILES: O=S(=O)([O-])[O-].[Mg+2] [MgSO4]

- unfolding transition (Tm) (D(II) FGFR1; aprosulate 300 uM): about 320 K
- increase of unfolding transition (D(II) FGFR1; aprosulate 300 uM, 50 μM D(II) FGFR1, 10 μL): about 8 K
- Kd (D(II) FGFR1; estimate, read-out: binding affinity at the Tm): ~18 µM
SMILES: O=C(NCCCNC(=O)[C@H](OS(=O)(=O)O)[C@@H](OS(=O)(=O)O)[C@H](O[C@@H]1O[C@H](COS(=O)(=O)O)[C@H](OS(=O)(=O)O)[C@H](OS(=O)(=O)O)[C@H]1OS(=O)(=O)O)[C@@H](COS(=O)(=O)O)OS(=O)(=O)O)[C@H](OS(=O)(=O)O)[C@@H](OS(=O)(=O)O)[C@H](O[C@@H]1O[C@H](COS(=O)(=O)O)[C@H](OS(=O)(=O)O)[C@H](OS(=O)(=O)O)[C@H]1OS(=O)(=O)O)[C@@H](COS(=O)(=O)O)OS(=O)(=O)O [aprosulate]

- effect on human α-thrombin stability (human α-thrombin): stabilizing effect
- effect on D(II) FGF receptor 1 stability (D(II) FGF receptor 1): stabilized the protein
- effect on human urokinase stability (human urokinase): stabilized the protein
SMILES: OCC(O)CO [glycerol]

SMILES: Cc1ccc(C(=O)Nc2ccc(S(=O)(=O)O)c3cc(S(=O)(=O)O)cc(S(=O)(=O)O)c23)cc1NC(=O)c1cccc(NC(=O)Nc2cccc(C(=O)Nc3cc(C(=O)Nc4ccc(S(=O)(=O)O)c5cc(S(=O)(=O)O)cc(S(=O)(=O)O)c45)ccc3C)c2)c1 [Suramin, suramin]
- Tm ([2]; aFGF/ligand, aFGF 0.25 mg/mL, ligand 47-200 μM, turbidity): 330.15 ° K
- Kd ([2]; equation (1), estimated ΔHu 60.0 kcal/mole, ΔCpu 0.95 kcal/mole-°K, read-out: Kd at Tm): 3.22 µM
- Kd ([2]; equation (3), ΔHL estimated −10.0 kcal/mole, read-out: Kd at 298° K Observed): 0.622 µM
- ΔTm ([2]; relative to aFGF alone (317.15 ° K)): 13.0 ° K
- Kd [3]: 3.5 µM

SMILES: N=C(N)NCCC[C@H](N)C(=O)O [arginine]
- effect on D(II) FGF receptor 1 stability (D(II) FGF receptor 1): stabilized the protein

SMILES: [Cl-].[Na+] [NaCl, sodium chloride]
- ΔTm (human α-thrombin; NaCl concentration increased from 0 to 0.5 M): about 12 °C
- Kd (human α-thrombin; near the Tm (53° C.), 50 mM Hepes pH 8.0, zero and 0.10 M NaCl, read-out: NaCl binding (estimated with equation (1))): ~6000 µM
- ΔTm (D(II) FGF receptor 1; NaCl concentration increased from 0.1 to 0.5 M): about 5 °C
- effect on human urokinase stability (human urokinase): stabilized the protein
- Kd (thrombin): 30000 ± 3000 µM

- effect on human α-thrombin stability (human α-thrombin): destabilizing effect
- effect on D(II) FGF receptor 1 stability (D(II) FGF receptor 1): destabililzed the protein
SMILES: O[C@H](CS)[C@H](O)CS (racemic) [dithiothreitol]
